Assay results from patent publication US20220308043A1, “FLUORESCENT PROBES FOR IDENTIFICATION AND QUANTIFICATION OF HEPATIC TRANSPORTERS IN VITRO AND IN VIVO” (Université d'Orléans, priority 2021, published 2022).
Entries after “also recorded” stand apart in the source; their conditions may differ. Where two headings read alike, the source gives them in different places.

Columns and labels:
Efflux transporters = conditions: cited from earlier work
[1] = test system: bile canaliculi (BC) of HEPARG® cells; assay: Bile canaliculi alterations evaluation for cholestasis-DILI prediction in HEPARG® cells; assay type: cell-based, human; conditions: for alteration of bile canaliculi (BC) revealed by fluorescent probe 15: HEPARG® cells, probe 15, versus control cells incubated only with 15, FIG. 9
Protocol: To investigate the application of fluorescent probes for predicting drug-induced cholestasis, cholestatic effects of six reference cholestatic drugs are evaluated by using two protocols.

BC = conditions: cited from earlier work
BSEP [2] = target: T1, BSEP (Homo sapiens, UniProt O95342); assay: Efflux assay approach 1: canalicular accumulation in wild-type HEPARG® hepatocytes with or without taurocholate (BSEP competitive inhibitor); assay type: cell-based; set-up: both uptake transporters and efflux transporters, such as BSEP, MRP2, Pgp and BCRP; host or cells: differentiated wild-type HepaRG hepatocytes; conditions: for dependence of efflux into BC on BSEP: conclusion in words; for probe fluorescence / accumulation in BC with taurocholate: taurocholate as competitive inhibitor of BSEP, 3 hours at 37° C., FIG. 4 image B, FIG. 5
Protocol: (§1) After washing with the WME containing 0.1% BSA, the cell cultures are then incubated with WME medium containing 0.1% BSA, with or without the different inhibitors (taurocholate, Verapamil, KO143) at the concentration indicated at the table E2 for 3 hours at 37° C.
Target sequence in this assay (O95342 whole entry): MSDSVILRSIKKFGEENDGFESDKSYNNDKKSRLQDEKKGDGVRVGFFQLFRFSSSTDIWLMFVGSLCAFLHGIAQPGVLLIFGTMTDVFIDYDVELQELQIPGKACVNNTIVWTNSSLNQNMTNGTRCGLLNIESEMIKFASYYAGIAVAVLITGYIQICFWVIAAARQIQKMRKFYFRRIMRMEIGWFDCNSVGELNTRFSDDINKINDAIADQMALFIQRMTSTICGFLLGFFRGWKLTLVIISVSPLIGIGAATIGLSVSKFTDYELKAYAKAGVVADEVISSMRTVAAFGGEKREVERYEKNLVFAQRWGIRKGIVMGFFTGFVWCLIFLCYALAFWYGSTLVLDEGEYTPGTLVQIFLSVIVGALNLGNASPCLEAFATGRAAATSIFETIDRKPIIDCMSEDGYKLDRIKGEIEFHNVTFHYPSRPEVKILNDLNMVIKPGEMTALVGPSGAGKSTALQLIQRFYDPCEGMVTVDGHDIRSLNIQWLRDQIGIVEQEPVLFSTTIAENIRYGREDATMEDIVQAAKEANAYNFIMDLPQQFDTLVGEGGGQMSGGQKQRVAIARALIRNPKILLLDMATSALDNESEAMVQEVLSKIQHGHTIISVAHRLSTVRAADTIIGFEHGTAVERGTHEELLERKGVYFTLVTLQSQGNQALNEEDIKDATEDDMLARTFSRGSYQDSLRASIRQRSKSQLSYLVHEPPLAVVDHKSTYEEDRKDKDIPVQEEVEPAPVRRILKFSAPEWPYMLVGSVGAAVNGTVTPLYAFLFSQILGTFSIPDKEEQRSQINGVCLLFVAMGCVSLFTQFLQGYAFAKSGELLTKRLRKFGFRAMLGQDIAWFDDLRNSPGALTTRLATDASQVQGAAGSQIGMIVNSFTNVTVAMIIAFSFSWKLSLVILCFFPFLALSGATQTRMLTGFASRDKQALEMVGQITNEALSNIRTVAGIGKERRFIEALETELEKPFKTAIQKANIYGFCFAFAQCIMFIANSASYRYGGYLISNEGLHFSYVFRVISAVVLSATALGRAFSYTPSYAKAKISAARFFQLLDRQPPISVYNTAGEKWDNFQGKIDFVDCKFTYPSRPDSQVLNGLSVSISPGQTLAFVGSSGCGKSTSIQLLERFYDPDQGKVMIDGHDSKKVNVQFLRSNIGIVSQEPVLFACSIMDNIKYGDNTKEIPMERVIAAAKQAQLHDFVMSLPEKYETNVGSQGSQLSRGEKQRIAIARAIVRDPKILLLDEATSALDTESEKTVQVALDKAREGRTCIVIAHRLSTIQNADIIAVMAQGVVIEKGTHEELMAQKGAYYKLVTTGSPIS

OCT = assay: Uptake evaluation, Test group 2: probe uptake in PHH with Mpp (OCT inhibitor); assay type: in vitro ADME, human; conditions: PHH pre-incubated 20 minutes with inhibitor, probe 5 μM, 30 minutes at 37° C.
MRP2 [3] = target: T2, MRP2 (Homo sapiens, UniProt Q92887)
Protocol: (§2) Two HEPARG® cell lines are used as hepatic cell models for in vitro bile acid efflux assay.
(§3) Before the probe incubation assay, both differentiated HEPARG® wild-type and HEPARG® MRP2 KO cell cultures are washed once with Williams' Medium E (WME) with 0.1% BSA and then incubated with 1 to 5 μM of fluorescent probes (54, 55, 15) in WME with 0.1% BSA or 3 μM of CDFDA in WME at 37° C. for 30 min.
(§4) After incubation, the cell cultures are washed 4 times with WME medium containing 0.5% DMSO and 2% FBS.
(§5) The cell cultures are then observed with a fluorescence microscope and the cell images are taken and compared.
(§6) Both the differentiated wild-type HEPARG®™ and MPR2-KO HEPARG® cells are thawed in HEPARG® Thawing/Plating/General Purpose medium (MIL600/ADD670) and cultured in HEPARG® Maintenance/Metabolism Medium (MIL600/ADD620) (according to the user guide of Biopredic International). Fourteen to twenty days after cell seeding and maintenance, the fully differentiated and polarized cell cultures of both the wild-type and MRP2-KO HEPARG® cells are ready and used for the characterization of biological effects of fluorescent probes in term of specific Efflux Transporter-Mediated efflux of probes in the bile canaliculi of HEPARG® hepatocytes.

OATs [4] = test system: OATs
[5] = test system: primary human hepatocyte (PHH)
Protocol: Four batches of primary human hepatocyte (PHH) are used for in vitro uptake assay:
Cryopreserved PHH are thawed in one-step Hepatocyte Thawing/Plating medium (MIL130) and then cells number and viability were evaluated with trypan blue exclusion test prior to cell treatment.
Influx study. Cryopreserved PHH are thawed in one-step Hepatocyte Thawing/Plating medium (MIL130) and then the cell number and viability are evaluated with trypan blue exclusion test prior to cell treatment. The cells were grown in MW96 at a density of 0.2*10^6/well.
Incubation for uptake evaluation. Incubation buffer: HBSS buffer containing 10 mM Herpes and 0.1% BSA, pH 7.4
The active uptake of each probe was tested according to the Test group 1 conditions. The results are presented in the table below as the percentage of active uptake compared to total uptake.

NTCP = target: T3, NTCP (Homo sapiens, UniProt Q14973); assay: Uptake evaluation, Test group 2: probe uptake in PHH with Myrcludex (NTCP inhibitor); assay type: in vitro ADME; conditions: PHH pre-incubated 20 minutes with inhibitor, probe 5 μM, 30 minutes at 37° C.
T3 construct: Cryopreserved PHH are thawed in one-step Hepatocyte Thawing/Plating medium; endogenous in cells; host or cells: cryopreserved primary human hepatocytes (PHH)
T3 sequence (Q14973 1-349): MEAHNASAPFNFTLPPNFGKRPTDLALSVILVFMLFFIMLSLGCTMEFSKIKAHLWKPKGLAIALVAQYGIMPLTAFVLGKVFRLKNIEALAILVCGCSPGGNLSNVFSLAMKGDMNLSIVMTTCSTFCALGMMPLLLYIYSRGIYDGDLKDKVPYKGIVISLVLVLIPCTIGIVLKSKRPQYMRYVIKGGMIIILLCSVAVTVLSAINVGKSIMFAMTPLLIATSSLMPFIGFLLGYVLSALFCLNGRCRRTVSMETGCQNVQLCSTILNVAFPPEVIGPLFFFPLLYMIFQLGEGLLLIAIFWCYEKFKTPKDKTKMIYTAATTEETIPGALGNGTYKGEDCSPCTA

OATPs = conditions: PHH pre-incubated 20 minutes with inhibitor, probe 5 μM, 30 minutes at 37° C.
BCRP = target: T4, BCRP (Homo sapiens, UniProt Q9UNQ0); assay: Efflux assay approach 1: canalicular accumulation in wild-type HEPARG® hepatocytes with or without KO143 (BCRP inhibitor); assay type: cell-based; conditions: 3 hours at 37° C., FIG. 4 image C
T4 construct: both uptake transporters and efflux transporters, such as BSEP, MRP2, Pgp and BCRP; host or cells: differentiated wild-type HepaRG hepatocytes
T4 sequence (Q9UNQ0 1-655): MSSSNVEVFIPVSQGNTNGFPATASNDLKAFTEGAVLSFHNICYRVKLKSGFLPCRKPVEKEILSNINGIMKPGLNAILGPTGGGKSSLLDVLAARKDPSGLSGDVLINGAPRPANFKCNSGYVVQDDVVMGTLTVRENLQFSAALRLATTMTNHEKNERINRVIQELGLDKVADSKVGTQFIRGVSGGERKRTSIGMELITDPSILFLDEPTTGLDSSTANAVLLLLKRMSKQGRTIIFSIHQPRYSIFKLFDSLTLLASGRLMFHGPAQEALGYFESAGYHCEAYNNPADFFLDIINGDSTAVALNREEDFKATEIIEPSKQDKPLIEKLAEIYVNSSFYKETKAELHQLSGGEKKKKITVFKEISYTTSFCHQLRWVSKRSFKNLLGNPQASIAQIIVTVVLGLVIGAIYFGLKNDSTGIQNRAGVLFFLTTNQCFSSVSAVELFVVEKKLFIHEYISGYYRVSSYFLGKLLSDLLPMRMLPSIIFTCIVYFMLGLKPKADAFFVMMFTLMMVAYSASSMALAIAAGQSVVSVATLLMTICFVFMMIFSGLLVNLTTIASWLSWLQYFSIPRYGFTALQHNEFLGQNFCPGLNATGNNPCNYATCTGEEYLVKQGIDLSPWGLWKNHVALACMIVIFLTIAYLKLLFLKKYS
Protocol: as §1

Pgp = target: T5, Pgp (Homo sapiens, UniProt P08183); assay: Efflux assay approach 1: canalicular accumulation in wild-type HEPARG® hepatocytes with or without Verapamil (Pgp inhibitor); assay type: cell-based; conditions: 3 hours at 37° C., FIG. 4 image D
T5 construct: both uptake transporters and efflux transporters, such as BSEP, MRP2, Pgp and BCRP; host or cells: differentiated wild-type HepaRG hepatocytes
Protocol: as §1

BSEP [6] = target: T1, BSEP; assay: Efflux assay approach 2: uptake in ABC transporter vesicles (Sf9) in the presence of ATP or AMP; assay type: in vitro ADME; set-up: purchased Genomembrane GM3010, GM3030 and GM3050 (reagent kits); host or cells: Sf9 cells; conditions: 10 minutes, FIG. 6
Protocol: Fluorescent probes were incubated with vesicles at 1 and 10 μM during 10 minutes, while the reference substrates were incubated at the test conditions indicated above. • Approach 3: specificity assessment with HEPARG® MRP2 KO
Transporter assay. Reagent kits for Vesicular Transport Assay from Genomembrane (GM3010, GM3030 and GM3050) were used to determine the specificity of ABC transporters versus tested probes.
The vesicles transfected with BSEP transporter were incubated with the 2 probes 54 and 55 in the presence of ATP or AMP in order to determine the interaction specificity between the probe and the transporter.
Target sequence in this assay (O95342 whole entry, species assumed): as the sequence (O95342 whole entry) above

MRP2 [7] = target: T2, MRP2; assay: Efflux assay approach 3: canalicular accumulation in HEPARG® MRP2 KO and wild-type cells; conditions: for dependence of canalicular efflux on ABC transporter MRP2: conclusion from MRP2 KO accumulation profile; for accumulation / fluorescence intensity in the BC of HEPARG® MRP2 KO cells: probes 1 to 5 μM or 3 μM CDFDA, 37° C., 30 min, FIG. 7
Protocol: as §2, §3, §4, §5, §6

OATs [8] = assay: Uptake evaluation, Test group 2: probe uptake in PHH with Indomethacine/Diclofenac (OATs inhibitor); conditions: PHH pre-incubated 20 minutes with inhibitor, probe 5 μM, 30 minutes at 37° C.

T2 sequence (Q92887 whole entry): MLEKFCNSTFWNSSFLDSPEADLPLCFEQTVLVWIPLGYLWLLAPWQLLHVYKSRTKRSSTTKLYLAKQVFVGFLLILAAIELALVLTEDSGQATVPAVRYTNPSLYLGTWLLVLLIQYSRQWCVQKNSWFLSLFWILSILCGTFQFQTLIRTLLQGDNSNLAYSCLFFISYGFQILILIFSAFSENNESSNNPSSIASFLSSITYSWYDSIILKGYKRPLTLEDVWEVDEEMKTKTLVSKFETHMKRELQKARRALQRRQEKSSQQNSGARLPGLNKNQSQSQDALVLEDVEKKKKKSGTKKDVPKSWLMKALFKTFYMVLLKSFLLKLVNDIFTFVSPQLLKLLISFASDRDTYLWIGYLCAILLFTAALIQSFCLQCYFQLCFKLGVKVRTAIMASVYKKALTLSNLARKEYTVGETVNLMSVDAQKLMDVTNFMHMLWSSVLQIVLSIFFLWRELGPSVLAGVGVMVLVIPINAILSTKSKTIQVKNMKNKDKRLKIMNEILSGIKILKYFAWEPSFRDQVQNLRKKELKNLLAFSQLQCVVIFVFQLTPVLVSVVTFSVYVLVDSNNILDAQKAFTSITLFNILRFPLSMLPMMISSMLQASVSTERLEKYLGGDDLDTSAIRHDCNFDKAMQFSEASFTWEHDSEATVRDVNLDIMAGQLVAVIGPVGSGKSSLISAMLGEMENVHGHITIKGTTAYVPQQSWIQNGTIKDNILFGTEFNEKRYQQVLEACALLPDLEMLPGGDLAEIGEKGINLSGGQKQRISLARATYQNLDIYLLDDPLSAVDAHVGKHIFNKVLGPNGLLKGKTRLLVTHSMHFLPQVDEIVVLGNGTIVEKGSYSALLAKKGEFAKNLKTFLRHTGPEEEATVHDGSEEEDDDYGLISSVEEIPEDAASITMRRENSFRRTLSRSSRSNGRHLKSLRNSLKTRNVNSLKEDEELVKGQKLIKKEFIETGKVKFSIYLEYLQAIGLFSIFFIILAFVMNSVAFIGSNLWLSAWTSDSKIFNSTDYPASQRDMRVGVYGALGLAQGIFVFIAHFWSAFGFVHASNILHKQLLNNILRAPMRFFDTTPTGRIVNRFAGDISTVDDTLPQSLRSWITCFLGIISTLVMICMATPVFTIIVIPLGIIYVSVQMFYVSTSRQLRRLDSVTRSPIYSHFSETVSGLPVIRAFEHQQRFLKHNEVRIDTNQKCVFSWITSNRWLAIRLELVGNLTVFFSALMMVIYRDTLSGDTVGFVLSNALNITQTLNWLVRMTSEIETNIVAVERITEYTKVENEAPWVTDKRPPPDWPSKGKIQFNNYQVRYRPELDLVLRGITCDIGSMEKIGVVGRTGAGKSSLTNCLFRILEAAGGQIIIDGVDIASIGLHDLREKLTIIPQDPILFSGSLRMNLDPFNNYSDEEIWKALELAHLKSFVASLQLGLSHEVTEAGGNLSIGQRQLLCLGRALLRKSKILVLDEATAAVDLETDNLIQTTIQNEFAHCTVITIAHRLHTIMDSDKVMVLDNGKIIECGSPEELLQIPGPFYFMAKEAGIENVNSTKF
T5 sequence (P08183 whole entry): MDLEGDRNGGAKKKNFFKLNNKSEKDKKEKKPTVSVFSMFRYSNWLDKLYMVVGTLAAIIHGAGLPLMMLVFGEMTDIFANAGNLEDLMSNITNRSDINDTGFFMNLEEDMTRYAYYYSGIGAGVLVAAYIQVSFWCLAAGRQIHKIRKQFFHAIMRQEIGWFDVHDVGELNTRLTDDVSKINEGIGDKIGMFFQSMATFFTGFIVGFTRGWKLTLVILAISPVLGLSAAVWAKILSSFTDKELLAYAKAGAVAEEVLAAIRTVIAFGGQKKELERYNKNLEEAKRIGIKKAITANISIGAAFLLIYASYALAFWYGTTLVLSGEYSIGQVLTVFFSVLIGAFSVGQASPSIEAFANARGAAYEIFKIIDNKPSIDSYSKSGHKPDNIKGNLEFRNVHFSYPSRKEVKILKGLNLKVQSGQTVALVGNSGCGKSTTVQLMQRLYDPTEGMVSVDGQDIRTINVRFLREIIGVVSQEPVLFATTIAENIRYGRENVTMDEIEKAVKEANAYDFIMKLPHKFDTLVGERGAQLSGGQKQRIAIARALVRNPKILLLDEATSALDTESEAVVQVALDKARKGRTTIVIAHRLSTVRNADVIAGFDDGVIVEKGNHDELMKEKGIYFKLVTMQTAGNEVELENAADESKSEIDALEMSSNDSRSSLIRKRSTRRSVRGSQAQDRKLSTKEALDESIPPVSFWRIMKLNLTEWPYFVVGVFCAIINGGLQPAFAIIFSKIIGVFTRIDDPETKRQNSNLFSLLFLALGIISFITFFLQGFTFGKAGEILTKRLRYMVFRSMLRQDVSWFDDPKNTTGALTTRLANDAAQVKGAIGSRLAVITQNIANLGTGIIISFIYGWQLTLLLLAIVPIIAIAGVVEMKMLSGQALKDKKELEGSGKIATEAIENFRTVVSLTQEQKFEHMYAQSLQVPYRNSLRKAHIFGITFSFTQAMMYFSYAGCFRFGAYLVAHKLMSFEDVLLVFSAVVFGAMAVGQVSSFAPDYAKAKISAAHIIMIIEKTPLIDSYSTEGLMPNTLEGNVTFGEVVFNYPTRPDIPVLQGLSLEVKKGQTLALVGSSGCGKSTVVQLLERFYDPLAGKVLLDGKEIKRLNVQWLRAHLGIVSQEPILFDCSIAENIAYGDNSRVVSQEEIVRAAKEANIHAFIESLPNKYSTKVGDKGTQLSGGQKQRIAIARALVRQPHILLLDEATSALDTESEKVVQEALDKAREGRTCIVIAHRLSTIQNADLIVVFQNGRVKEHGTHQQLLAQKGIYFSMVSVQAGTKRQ

## CC(=O)Nc1ccc(O)cc1 [Acetaminophen]
Efflux transporters
  Theoretical effect: Efflux transporters interaction: None
[1]; drug 3 hours at 37° C., then probe CDFDA 3 μM 30 min, FIG. 8A
  Protocol 1 Effects on BC morphology and BA transporters CDFDA: No effect
BC
  Theoretical effect: Induced effect on BC: None

## COc1ccccc1Oc1c(NS(=O)(=O)c2ccc(C(C)(C)C)cc2)nc(-c2ncccn2)nc1OCCO [Bosentan]
Efflux transporters
  Theoretical effect: Efflux transporters interaction: MRP2/BSEP
[1]
  alteration of bile canaliculi (BC) revealed by fluorescent probe 15: important dilation
BC
  Theoretical effect: Induced effect on BC: dilation

## CN(C)CCCN1c2ccccc2Sc2ccc(Cl)cc21 [Chlorpromazine]
Efflux transporters
  Theoretical effect: Efflux transporters interaction: MRP2/BSEP
[1]; listed as CPZ
  alteration of bile canaliculi (BC) revealed by fluorescent probe 15: remarkable constriction of BC; also recorded: detectable constriction of BC
BC
  Theoretical effect: Induced effect on BC: constriction

## COC(=O)[C@H](CCCCNc1ccc([N+](=O)[O-])c2nonc12)NC(=O)CC[C@@H](C)C1CCC2C3C(CC[C@@]21C)[C@@]1(C)CC[C@@H](O)CC1C[C@@H]3O (stereo partly drawn) [Compound 15, Methyl-N2-((4R)-4-((3R,7S,10S,13R)-3,7-dihydroxy-10,13-dimethylhexadecahydro-1H-cyclopenta[a]phenanthren-17-yl)pentanoyl)-N6-(7-nitrobenzo[c][1,2,5]oxadiazol-4-yl)-L-lysinate]
BSEP [2]
  dependence of efflux into BC on BSEP: weakly dependent on BSEP
  probe fluorescence / accumulation in BC with taurocholate: partial inhibition profile
OCT
  % of inhibition Mpp (OCT inhibitor): 11%
MRP2 [3]
  dependence of canalicular efflux on ABC transporter MRP2: independent
OATs [4]
  involvement of OATs in the uptake of the probe: mainly dependent on OAT family
[5]; human, 30 min, 5 μM, pH 7.4
  % Active uptake (Mean value): 31%
NTCP
  % of inhibition Myrcludex (NTCP inhibitor): 16%
OATPs
  % of inhibition Rifampicine (OATPs inhibitor): 34%

## COC(=O)C(CCCCNC(=O)CCc1ccc2n1[B-](F)(F)[N+]1=C(C)C=C(C)C1=C2)NC(=O)CCC(C)C1CCC2C3C(O)CC4CC(O)CCC4(C)C3CCC12C [Compound 54, Methyl N6-(3-(5,5-difluoro-7,9-dimethyl-5H-dipyrrolo[1,2-c:2′,1′-f][1,3,2]diazaborinin-3-yl)propanoyl)-N2-((4R)-4-((3R,7S,10S,13R,17R)-3,7-dihydroxy-10,13-dimethylhexadecahydro-1H-cyclopenta[a]phenanthren-17-yl)pentanoyl)-L-lysinate]
BSEP [2]
  dependence of efflux into BC on BSEP: substrate of BSEP
  probe fluorescence / accumulation in BC with taurocholate: significant decrease
BSEP [2]; without any inhibitor, FIG. 4 image A
  accumulation of probe fluorescence in BC of HEPARG® hepatocytes: significant accumulation
BCRP
  BC accumulation with inhibitor of BCRP (KO143) versus control cells: no visible difference
Pgp
  BC accumulation with inhibitor of Pgp (Verapamil) versus control cells: no visible difference
BSEP [6]; whatever probe concentrations (1 and 10 μM)
  uptake in vesicles ATP/AMP: no difference
MRP2 [7]
  dependence of canalicular efflux on ABC transporter MRP2: independent
  accumulation / fluorescence intensity in the BC of HEPARG® MRP2 KO cells: stronger fluorescence intensity
[5]
  type of probe uptake (active transport or passive diffusion): mainly mediated by transporters

## COC(=O)CNC(=O)C(CCCCNC(=O)CCc1ccc2n1[B-](F)(F)[N+]1=C(C)C=C(C)C1=C2)NC(=O)CCC(C)C1CCC2C3C(O)CC4CC(O)CCC4(C)C3CCC12C [Compound 55, Methyl-N6-(3-(5,5-difluoro-7,9-dimethyl-5H-dipyrrolo[1,2-c:2′,1′-f][1,3,2]diazaborinin-3-yl)propanoyl)-N2-((4R)-4-((3R,7S,10S,13R,17R)-3,7-dihydroxy-10,13-dimethylhexadecahydro-1H-cyclopenta[a]phenanthren-17-yl)pentanoyl)-L-lysylglycinate]
BCRP
  BC accumulation with inhibitor of BCRP (KO143) versus control cells: independent
Pgp
  BC accumulation with inhibitor of Pgp (Verapamil) versus control cells: independent
BSEP [6]; probe at 10 μM
  uptake inside the membrane vesicles in the presence of ATP compared to AMP: significant uptake
MRP2 [7]
  dependence of canalicular efflux on ABC transporter MRP2: independent
  accumulation / fluorescence intensity in the BC of HEPARG® MRP2 KO cells: stronger fluorescence intensity
[5]
  type of probe uptake (active transport or passive diffusion): mainly mediated by transporters

## O=S(=O)(c1cccc2cnccc12)N1CCCNCC1 [Fasudil]
Efflux transporters
  Theoretical effect: Efflux transporters interaction: No

## Cc1c(C)c2c(c(C)c1O)CCC(C)(COc1ccc(CC3SC(=O)NC3=O)cc1)O2 (centres unmarked) [Troglitazone]
BC
  Theoretical effect: Induced effect on BC: constriction

## Tauro-nor-THCA-24-DBD [reference compound]
OCT
  % of inhibition Mpp (OCT inhibitor): 26%
OATs [8]
  % of inhibition Indomethacine/Diclofenac (OATs inhibitor): 50%
NTCP
  % of inhibition Myrcludex (NTCP inhibitor): 81%
OATPs
  % of inhibition Rifampicine (OATPs inhibitor): 24%
